Data set [1] has as its system murine dendritic cells. As to the kind of experiment: RANTES secretion by CpG-stimulated murine dendritic cells (ELISA). The class given is cell-based. The conditions noted are these: inferred from RANTES secretion, FIG. 2. As for the experimental part: Murine dendritic cells were cultured in the presence of sirtuin inhibitors as indicated and stimulated overnight with graded doses of CpG. Cell supernatants were tested for RANTES content by ELISA.

Data set [2] relates to murine dendritic cells. As to the kind of experiment: TNF-alpha secretion by CpG-stimulated murine dendritic cells (ELISA). The format is cell-based. The conditions noted are these: stimulated overnight with graded doses of CpG, FIG. 1A. As for the experimental part: (§1) Murine dendritic cells (FIG. 1A) or the murine macrophage-like cell line RAW264.7 cells (FIG. 1B) were cultured in the presence of sirtuin inhibitors as indicated or an equivalent amount of solvent (DMSO) and stimulated overnight with graded doses of CpG (FIG. 1A) or for 2 h with 100 ng/ml of lipopolysaccharide (LPS) from gram-negative bacteria. Cell supernatants were tested for tumor necrosis factor (TNF-alpha) content by ELISA.
A general note: An ELISA detects its analyte on a solid surface through an enzyme-linked reagent.

Data set [3] deals with murine macrophage-like cell line RAW264.7. As to the kind of experiment: TNF-alpha secretion by LPS-stimulated RAW264.7 cells (ELISA). The format is cell-based. The following applies: stimulated 2 h with 100 ng/ml LPS, FIG. 1B. Here is the method:
as §1

Another data set has as its system RAW264.7. As to the kind of experiment: TNF-alpha mRNA accumulation in LPS-stimulated RAW264.7 (quantitative RT-PCR). The format is cell-based, murine. The conditions noted are these: RAW264.7, stimulated 2 h by LPS, FIG. 3. Here is the method: RAW264.7 were incubated in the presence of sirtuin inhibitors or equivalent doses of solvent (DMSO) as indicated and stimulated for 2 h by LPS. Expression of mRNA encoding for TNF-α was monitored using quantititative RT-PCR using standard procedures and the following forward and reverse primers (fwd: […]; rev: gctacgacgtgggctacag). […] Collectively, these observations indicate that sirtuin inhibitors may affect TNF-alpha secretion by interfering with at a post-transcriptional step.

For the next data set, the target named is SIRT1 (Homo sapiens, UniProt Q96EB6). The following applies: Howitz et al. 2003; cited from earlier work.
SIRT1, sequence (Q96EB6 whole entry): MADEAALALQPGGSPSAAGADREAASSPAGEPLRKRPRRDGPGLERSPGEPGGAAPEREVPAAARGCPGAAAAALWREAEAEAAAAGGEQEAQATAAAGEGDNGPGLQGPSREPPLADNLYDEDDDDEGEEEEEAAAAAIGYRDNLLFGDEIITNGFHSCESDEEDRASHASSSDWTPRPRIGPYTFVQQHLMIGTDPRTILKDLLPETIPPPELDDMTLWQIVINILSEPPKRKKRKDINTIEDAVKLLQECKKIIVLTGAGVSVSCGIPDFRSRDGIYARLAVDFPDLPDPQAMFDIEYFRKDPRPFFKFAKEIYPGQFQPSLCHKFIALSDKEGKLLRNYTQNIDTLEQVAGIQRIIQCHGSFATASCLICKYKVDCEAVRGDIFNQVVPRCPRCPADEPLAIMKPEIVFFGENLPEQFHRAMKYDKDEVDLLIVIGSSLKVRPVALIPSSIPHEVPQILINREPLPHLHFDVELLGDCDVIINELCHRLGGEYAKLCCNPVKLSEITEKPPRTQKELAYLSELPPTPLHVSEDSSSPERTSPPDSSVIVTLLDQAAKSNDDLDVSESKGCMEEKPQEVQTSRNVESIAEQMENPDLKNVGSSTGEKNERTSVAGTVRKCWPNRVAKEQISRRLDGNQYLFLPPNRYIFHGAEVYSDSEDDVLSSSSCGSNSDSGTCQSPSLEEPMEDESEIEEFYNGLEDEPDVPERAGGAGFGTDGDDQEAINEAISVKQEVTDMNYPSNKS
The conditions of data set [4]: Yang et al. 2007; cited from earlier work.

Entries after “also recorded” stand apart in the source; their conditions may differ.

For the molecule `Oc1ccc2ccccc2c1Cc1c(O)nc(S)nc1-c1ccccc1` [cambinol, 5-((2-hydroxy-1-naphthyl)methyl)-2-mercapto-6-phenyl-4-pyrimidinol], the “general inhibition of protein synthesis or induction of cell death” value in the data set on murine dendritic cells [1] is on record as “do not generally inhibit protein synthesis nor induce cell death”. The “TNF-alpha secretion (supernatant TNF-alpha content by ELISA)” value with murine dendritic cells [2] was “downregulation of TNF-alpha secretion”. For the same molecule, the “TNF-alpha secretion / cytokine production (supernatant TNF-alpha content by ELISA)” value in data set [3] is “inhibit TNF-α protein synthesis; also recorded: downregulation of TNF-alpha secretion; also recorded: may downregulate TNF-alpha cytokine production”. Also, in the data set on RAW264.7, the “intracellular accumulation of TNF-alpha mRNA” value is “do not significantly affect TNF-alpha mRNA accumulation; also recorded: without significantly affecting the intracellular accumulation of TNF-alpha mRNA”.

`Cc1ccc(C(=O)Nc2ccc(S(=O)(=O)O)c3cc(S(=O)(=O)O)cc(S(=O)(=O)O)c23)cc1NC(=O)c1cccc(NC(=O)Nc2cccc(C(=O)Nc3cc(C(=O)Nc4ccc(S(=O)(=O)O)c5cc(S(=O)(=O)O)cc(S(=O)(=O)O)c45)ccc3C)c2)c1` [suramin]: on SIRT1, the “inhibition of SIRT1 enzymatic activity” value is “found to inhibit SIRT1 enzymatic activity”.

Turning to `CC(NC(=O)c1ccccc1/N=C/c1c(O)ccc2ccccc12)c1ccccc1` (stereo not shown) [sirtinol, 2-[(2-Hydroxynaphthalen-1-ylmethylene)amino]-N-(1-phenethyl)benzamide], in data set [4], the “release of inflammatory cytokines induced by cigarette smoke extracts” value is reported as “could increase the release of inflammatory cytokines”. In addition, in the data set on murine dendritic cells [1], the “general inhibition of protein synthesis or induction of cell death” value is given as “do not generally inhibit protein synthesis nor induce cell death”. For the same molecule, the “TNF-alpha secretion (supernatant TNF-alpha content by ELISA)” value in the data set with murine dendritic cells [2] is “downregulation of TNF-alpha secretion”. Besides, the “TNF-alpha secretion / cytokine production (supernatant TNF-alpha content by ELISA)” value in data set [3] is given as “inhibit TNF-α protein synthesis; also recorded: downregulation of TNF-alpha secretion; also recorded: may downregulate TNF-alpha cytokine production”. Moreover, the “intracellular accumulation of TNF-alpha mRNA” value with RAW264.7 is reported as “do not significantly affect TNF-alpha mRNA accumulation; also recorded: without significantly affecting the intracellular accumulation of TNF-alpha mRNA”.
